Reference: PubChem BioAssay AID248 (DTP/NCI, 2004)
Where “and” joins values, the source holds several entries; their conditions need not be identical. Equal values may be shown once. Inconclusive results and toxic doses are left out. No stated cut-off is given here; in the data, active means T/C of 150% or more; inactive means T/C below 125%.

Tested on: L1210 leukemia ip in BDF1 mice, survival T/C
Experiment: NCI In Vivo Anticancer Drug Screen. Data for tumor model L1210 Leukemia (intraperitoneal) in B6D2F1 (BDF1) mice
Conditions: endpoint: mean survival time, higher = longer survival
Procedure, shortened: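 Transplantable tumor model; survival measured in treated vs vehicle control mice. Value = treated/control.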

[1] = dose: 25.0 mg/kg/injection, schedule: Q04DX003 (ip), vehicle: saline
[2] = dose: 50.0 mg/kg/injection, schedule: Q04DX003 (ip), vehicle: saline
[3] = dose: 60.0 mg/kg/injection, schedule: Q01DX Z (oral), vehicle: saline
[4] = dose: 120.0 mg/kg/injection, schedule: Q01DX Z (oral), vehicle: saline
[5] = dose: 100.0 mg/kg/injection, schedule: Q04DX003 (ip), vehicle: saline
[6] = dose: 200.0 mg/kg/injection, schedule: Q04DX003 (ip), vehicle: saline
[7] = dose: 400.0 mg/kg/injection, schedule: Q04DX003 (ip), vehicle: saline
[8] = dose: 100.0 mg/kg/injection, schedule: Q04DX002 (ip), vehicle: Klucel (hydroxypropylcellulose) (HPC)
[9] = dose: 200.0 mg/kg/injection, schedule: Q04DX002 (ip), vehicle: Klucel (hydroxypropylcellulose) (HPC)
[10] = dose: 400.0 mg/kg/injection, schedule: Q04DX002 (ip), vehicle: Klucel (hydroxypropylcellulose) (HPC)
[11] = dose: 100.0 mg/kg/injection, schedule: Q04DX003 (ip), vehicle: saline with Tween-80
[12] = dose: 200.0 mg/kg/injection, schedule: Q04DX003 (ip), vehicle: saline with Tween-80
[13] = dose: 400.0 mg/kg/injection, schedule: Q04DX003 (ip), vehicle: saline with Tween-80
[14] = dose: 100.0 mg/kg/injection, schedule: Q01DX009 (ip), vehicle: saline
[15] = dose: 100.0 mg/kg/injection, schedule: Q01DX001 (ip), vehicle: saline
[16] = dose: 200.0 mg/kg/injection, schedule: Q01DX001 (ip), vehicle: saline
[17] = dose: 100.0 mg/kg/injection, schedule: Q04DX002 (ip), vehicle: saline
[18] = dose: 100.0 mg/kg/injection, schedule: Q01DX009 (ip), vehicle: Klucel (hydroxypropylcellulose) (HPC)
[19] = dose: 200.0 mg/kg/injection, schedule: Q01DX009 (ip), vehicle: Klucel (hydroxypropylcellulose) (HPC)
[20] = dose: 400.0 mg/kg/injection, schedule: Q01DX009 (ip), vehicle: Klucel (hydroxypropylcellulose) (HPC)
[21] = dose: 100.0 mg/kg/injection, schedule: Q04DX003 (ip), vehicle: Klucel (hydroxypropylcellulose) (HPC)
[22] = dose: 200.0 mg/kg/injection, schedule: Q04DX003 (ip), vehicle: Klucel (hydroxypropylcellulose) (HPC)
[23] = dose: 400.0 mg/kg/injection, schedule: Q04DX003 (ip), vehicle: Klucel (hydroxypropylcellulose) (HPC)

Measured: T/C

CC([NH-])C(=O)O.CC([NH-])C(=O)O.[Ni+2] (configuration not stated)
inactive: dose: 3.12 mg/kg/injection, schedule: Q01DX009 (ip), vehicle: saline 98 % of control | dose: 6.25 mg/kg/injection, schedule: Q01DX009 (ip), vehicle: saline 101 % of control | dose: 6.25 mg/kg/injection, schedule: Q04DX003 (ip), vehicle: saline 102 % of control | dose: 12.5 mg/kg/injection, schedule: Q01DX009 (ip), vehicle: saline 95 % of control | dose: 12.5 mg/kg/injection, schedule: Q04DX003 (ip), vehicle: saline 98 % of control and 104 % of control | [1] 105 % of control and 109 % of control | [2] 101 % of control

CCNC(=O)Nc1cccc(NC(=O)C(=O)O)c1 (tested in a mixture with another compound)
inactive: dose: 100.0 mg/kg/injection, schedule: Q01DX001 (ip), vehicle: gum acacia 87 % of control | dose: 200.0 mg/kg/injection, schedule: Q01DX001 (ip), vehicle: gum acacia 97 % of control | dose: 400.0 mg/kg/injection, schedule: Q01DX001 (ip), vehicle: gum acacia 96 % of control

CC(=O)OCc1c(O)c2c(c(O)c1COC(C)=O)C(=O)C=CC2=O
inactive: dose: 2.0 mg/kg/injection, schedule: Q01DX009 (ip), vehicle: saline 96 % of control | dose: 4.0 mg/kg/injection, schedule: Q01DX009 (ip), vehicle: saline 96 % of control | dose: 8.0 mg/kg/injection, schedule: Q01DX009 (ip), vehicle: saline 88 % of control | dose: 16.0 mg/kg/injection, schedule: Q01DX009 (ip), vehicle: saline 91 % of control

CC(C)(/C=N/N=C(N)N)CCC#N
inactive: [3] 98 % of control | [4] 109 % of control | dose: 240.0 mg/kg/injection, schedule: Q01DX Z (oral), vehicle: saline 103 % of control | dose: 480.0 mg/kg/injection, schedule: Q01DX Z (oral), vehicle: saline 94 % of control and 116 % of control

COc1cccc(C=Nc2ccc(Br)cc2)c1O.COc1cccc(C=Nc2ccc(Br)cc2)c1O.[Co]
inactive: [5] 98 % of control | [6] 98 % of control | [7] 98 % of control

CC(=O)NCCOc1ccc(N)cc1Cl
inactive: [5] 94 % of control | [6] 92 % of control | [7] 91 % of control

NC(N)=N/N=C/c1cc([N+](=O)[O-])ccc1O
inactive: dose: 15.0 mg/kg/injection, schedule: Q01DX Z (ip), vehicle: saline 120 % of control | dose: 30.0 mg/kg/injection, schedule: Q01DX Z (ip), vehicle: saline 98 % of control | dose: 60.0 mg/kg/injection, schedule: Q01DX Z (ip), vehicle: saline 98 % of control | [3] 100 % of control | dose: 120.0 mg/kg/injection, schedule: Q01DX Z (ip), vehicle: saline 96 % of control | [4] 96 % of control

N#CCCP(CCC#N)CCCCCP(CCC#N)CCC#N
inactive: dose: 100.0 mg/kg/injection, schedule: Q01DX001 (ip), vehicle: saline with Tween-80 100 % of control | dose: 200.0 mg/kg/injection, schedule: Q01DX001 (ip), vehicle: saline with Tween-80 92 % of control | dose: 400.0 mg/kg/injection, schedule: Q01DX001 (ip), vehicle: saline with Tween-80 86 % of control

Cc1ccc(S(=O)(=O)OC2C(=O)C(C)(C)CCC2(C)C)cc1 (configuration not stated)
inactive: [8] 100 % of control | [9] 100 % of control | [10] 97 % of control

Clc1ccc2nc(C(Cl)(Cl)Cl)[nH]c2c1
inactive: [11] 98 % of control | [12] 104 % of control | [13] 95 % of control

COc1ccccc1-n1c(O)c(N=Nc2ccc(Br)cc2)c(=O)n(-c2ccccc2)c1=S
inactive: dose: 100.0 mg/kg/injection, schedule: Q01DX001 (ip), vehicle: Klucel (hydroxypropylcellulose) (HPC) 102 % of control | dose: 200.0 mg/kg/injection, schedule: Q01DX001 (ip), vehicle: Klucel (hydroxypropylcellulose) (HPC) 121 % of control | dose: 400.0 mg/kg/injection, schedule: Q01DX001 (ip), vehicle: Klucel (hydroxypropylcellulose) (HPC) 102 % of control

O=S1(=O)CCCCO1
inactive: dose: 25.0 mg/kg/injection, schedule: Q01DX009 (ip), vehicle: saline 97 % of control | [1] 102 % of control | dose: 50.0 mg/kg/injection, schedule: Q01DX009 (ip), vehicle: saline 101 % of control | [2] 102 % of control | [14] 89 % of control | [5] 98 % of control

C=C1CCC2(C(C)C)CC12 (configuration not stated)
inactive: [14] 103 % of control | [5] 96 % of control | dose: 200.0 mg/kg/injection, schedule: Q01DX009 (ip), vehicle: saline 93 % of control | [6] 110 % of control | dose: 400.0 mg/kg/injection, schedule: Q01DX009 (ip), vehicle: saline 94 % of control | [7] 100 % of control

CCC(O)C(C)CO (configuration not stated)
inactive: [15] 103 % of control | [16] 121 % of control | dose: 400.0 mg/kg/injection, schedule: Q01DX001 (ip), vehicle: saline 97 % of control

CC(=O)N(C(C)=O)c1ccccc1
inactive: dose: 100.0 mg/kg/injection, schedule: Q01DX009 (ip), vehicle: saline with Tween-80 105 % of control | dose: 200.0 mg/kg/injection, schedule: Q01DX009 (ip), vehicle: saline with Tween-80 107 % of control | dose: 400.0 mg/kg/injection, schedule: Q01DX009 (ip), vehicle: saline with Tween-80 115 % of control

O=[N+]([O-])c1cc(S(=O)(=O)c2ccc(O)c([N+](=O)[O-])c2)ccc1O
inactive: dose: 25.0 mg/kg/injection, schedule: Q04DX002 (ip), vehicle: saline 98 % of control | dose: 50.0 mg/kg/injection, schedule: Q04DX002 (ip), vehicle: saline 98 % of control | [17] 98 % of control and 104 % of control

FC(F)(F)c1cccc(-n2nncc2-c2ccc(Cl)cc2)c1
inactive: [8] 96 % of control | [9] 101 % of control | [10] 96 % of control

COc1ccc([N+](=O)[O-])cc1NC(=O)N/N=C(\C)C(C)(C)C
inactive: [18] 94 % of control | [19] 102 % of control | [20] 86 % of control

Cc1ccc(S(=O)(=O)[n+]2ccc(C)cc2)cc1
inactive: [8] 98 % of control | [9] 95 % of control

CN(CCC(C#N)c1ccccc1)C(=O)c1ccccc1 (configuration not stated)
inactive: dose: 75.0 mg/kg/injection, schedule: Q01DX001 (ip), vehicle: saline 98 % of control | dose: 150.0 mg/kg/injection, schedule: Q01DX001 (ip), vehicle: saline 96 % of control

COc1ccc(C)cc1NC(=O)Nc1ccccc1C(F)(F)F
inactive: [18] 89 % of control | [19] 91 % of control | [20] 100 % of control

O=C(COc1ccc(Cl)c(Cl)c1)Nc1ccc[n+](Cc2c(Cl)cccc2S(=O)(=O)F)c1
inactive: [15] 88 % of control | [16] 101 % of control

CCCCCCCCCC(=O)N1CCC(C)CC1
inactive: [17] 111 % of control | dose: 200.0 mg/kg/injection, schedule: Q04DX002 (ip), vehicle: saline 104 % of control | dose: 400.0 mg/kg/injection, schedule: Q04DX002 (ip), vehicle: saline 101 % of control

CO/N=C/c1ccc([N+](=O)[O-])s1
inactive: [5] 106 % of control | [6] 95 % of control | [7] 98 % of control

C(/C=C/C=C/Nc1ccccc1)=Nc1ccccc1
inactive: [11] 100 % of control | [12] 104 % of control | [13] 92 % of control

COC(=O)CSc1nn2nnnc2c2ccccc12
inactive: [2] 95 % of control | [5] 103 % of control | [6] 98 % of control

O=C1OC(c2ccccc2)CC12CCCCC2 (configuration not stated)
inactive: [21] 102 % of control | [22] 100 % of control | [23] 100 % of control

COC(=O)/C=C/C(=O)OC
inactive: dose: 25.0 mg/kg/injection, schedule: Q04DX002 (ip), vehicle: Klucel (hydroxypropylcellulose) (HPC) 97 % of control | dose: 50.0 mg/kg/injection, schedule: Q04DX002 (ip), vehicle: Klucel (hydroxypropylcellulose) (HPC) 100 % of control | [8] 103 % of control | [21] 104 % of control | [5] 101 % of control | [22] 101 % of control | [6] 107 % of control | [23] 112 % of control | [7] 103 % of control
